The text below walks through data of ChEMBL document CHEMBL5465560, “Selectivity Literature for EUbOPEN Chemogenomic Library” (2024).

Test [1] addresses cAMP-dependent protein kinase catalytic subunit alpha (Homo sapiens, UniProt P17612). The test can be described thus: Selectivity interaction (Enzyme panel (AstraZeneca, AlphaScreen, functional assay)) EUB0000621a PRKACA.
The target of test [2] is T1, Dual specificity mitogen-activated protein kinase kinase 6 (Homo sapiens) (UniProt P52564).
T1 sequence (whole entry): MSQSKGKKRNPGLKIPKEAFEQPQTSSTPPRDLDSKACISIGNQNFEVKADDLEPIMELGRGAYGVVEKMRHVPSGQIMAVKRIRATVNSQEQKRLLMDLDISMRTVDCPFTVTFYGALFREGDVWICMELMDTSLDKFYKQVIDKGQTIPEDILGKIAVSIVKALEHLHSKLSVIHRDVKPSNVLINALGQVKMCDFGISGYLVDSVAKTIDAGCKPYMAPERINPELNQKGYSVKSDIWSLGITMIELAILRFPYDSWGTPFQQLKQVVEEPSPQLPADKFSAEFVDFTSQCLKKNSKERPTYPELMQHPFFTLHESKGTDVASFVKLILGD
As to the kind of experiment: Selectivity interaction (ActivX KiNativ screen (ex vivo kinase selectivity in human PBMCs)) EUB0001619a MAP2K6. It counts as cell-based. To be noted: PBMC, at 1 µM.

Test [3] has as its target 5-hydroxytryptamine receptor 1A (Homo sapiens, UniProt P08908). As to the kind of experiment: Selectivity interaction (Serotonin 5HT1A Calcium flux assay, agonist and antagonist mode ) EUB0000877a HTR1A. Background: A change in cytosolic calcium serves as a functional read-out for many receptors and channels.
The target of test [4] is T2, Serine/threonine-protein kinase LATS1 (Homo sapiens) (UniProt O95835).
T2 sequence (whole entry): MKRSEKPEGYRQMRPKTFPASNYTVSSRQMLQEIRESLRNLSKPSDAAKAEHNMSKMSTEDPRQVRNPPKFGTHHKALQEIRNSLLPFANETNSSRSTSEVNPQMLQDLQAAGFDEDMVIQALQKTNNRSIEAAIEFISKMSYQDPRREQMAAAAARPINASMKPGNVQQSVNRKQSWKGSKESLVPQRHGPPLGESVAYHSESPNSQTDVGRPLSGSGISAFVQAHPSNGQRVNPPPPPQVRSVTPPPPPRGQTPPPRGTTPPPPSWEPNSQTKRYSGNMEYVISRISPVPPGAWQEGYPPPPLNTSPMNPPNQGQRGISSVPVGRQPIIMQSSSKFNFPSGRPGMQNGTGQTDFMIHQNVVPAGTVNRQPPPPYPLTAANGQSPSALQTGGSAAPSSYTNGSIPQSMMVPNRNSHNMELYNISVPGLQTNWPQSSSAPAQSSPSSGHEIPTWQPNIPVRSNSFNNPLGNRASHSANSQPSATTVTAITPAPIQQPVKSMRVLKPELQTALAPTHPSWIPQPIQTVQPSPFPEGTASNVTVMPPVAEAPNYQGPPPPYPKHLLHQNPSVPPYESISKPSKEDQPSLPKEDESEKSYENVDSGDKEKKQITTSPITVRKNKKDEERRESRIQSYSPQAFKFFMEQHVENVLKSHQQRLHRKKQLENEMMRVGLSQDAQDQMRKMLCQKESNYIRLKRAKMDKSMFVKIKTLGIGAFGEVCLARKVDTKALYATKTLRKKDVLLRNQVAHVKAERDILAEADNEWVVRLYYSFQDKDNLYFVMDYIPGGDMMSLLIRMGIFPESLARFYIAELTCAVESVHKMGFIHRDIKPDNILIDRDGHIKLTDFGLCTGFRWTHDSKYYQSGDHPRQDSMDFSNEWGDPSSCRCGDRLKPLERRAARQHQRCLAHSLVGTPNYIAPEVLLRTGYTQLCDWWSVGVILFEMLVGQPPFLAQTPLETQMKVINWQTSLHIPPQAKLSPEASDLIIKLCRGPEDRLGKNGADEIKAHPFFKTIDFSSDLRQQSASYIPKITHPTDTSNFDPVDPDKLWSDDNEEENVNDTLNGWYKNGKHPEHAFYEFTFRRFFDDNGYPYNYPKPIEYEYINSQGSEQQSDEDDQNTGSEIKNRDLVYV
The test can be described thus: Selectivity interaction (ActivX KiNativ screen (kinase selectivity in THP-1 cell lysates)) EUB0000639a LATS1. To be noted: lysate. The format is subcellular.

Test [5] addresses Serine/threonine-protein kinase PLK1 (Homo sapiens, UniProt P53350). As to the kind of experiment: Selectivity interaction (ActivX KiNativ screen (kinase selectivity in THP-1 cell lysates)) EUB0000639a PLK1. The format is subcellular. To be noted: lysate.
In test [6] the target is TGF-beta receptor type-2 (Homo sapiens) (UniProt P37173). The test can be described thus: Selectivity interaction (KinomeScan (DiscoverX)) EUB0001049a TGFBR2. To be noted: at 1 µM.
Chain of TGF-beta receptor type-2 (Homo sapiens) (P37173 whole entry): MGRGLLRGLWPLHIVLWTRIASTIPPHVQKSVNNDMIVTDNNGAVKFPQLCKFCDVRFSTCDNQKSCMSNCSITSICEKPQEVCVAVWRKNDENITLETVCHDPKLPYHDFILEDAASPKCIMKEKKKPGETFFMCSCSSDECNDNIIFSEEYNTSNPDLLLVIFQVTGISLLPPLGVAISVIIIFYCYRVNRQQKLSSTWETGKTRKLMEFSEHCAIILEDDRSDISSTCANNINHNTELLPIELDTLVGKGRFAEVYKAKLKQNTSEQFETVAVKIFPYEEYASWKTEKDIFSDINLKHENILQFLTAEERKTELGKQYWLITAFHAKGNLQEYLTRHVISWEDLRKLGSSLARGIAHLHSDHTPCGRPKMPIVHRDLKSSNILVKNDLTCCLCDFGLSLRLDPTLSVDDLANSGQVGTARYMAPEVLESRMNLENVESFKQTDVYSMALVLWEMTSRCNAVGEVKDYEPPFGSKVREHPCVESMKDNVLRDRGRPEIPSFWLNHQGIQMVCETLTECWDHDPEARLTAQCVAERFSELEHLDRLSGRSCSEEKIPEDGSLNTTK
For test [7], the target named is Tyrosine-protein kinase Lck (Homo sapiens, UniProt P06239). As to the kind of experiment: Selectivity interaction (Panel of kinases, GPCRs, ion channels and transporters (enzymatic assay)) EUB0000223bCl LCK.
Chain of Tyrosine-protein kinase Lck (P06239 2-509 limits assumed): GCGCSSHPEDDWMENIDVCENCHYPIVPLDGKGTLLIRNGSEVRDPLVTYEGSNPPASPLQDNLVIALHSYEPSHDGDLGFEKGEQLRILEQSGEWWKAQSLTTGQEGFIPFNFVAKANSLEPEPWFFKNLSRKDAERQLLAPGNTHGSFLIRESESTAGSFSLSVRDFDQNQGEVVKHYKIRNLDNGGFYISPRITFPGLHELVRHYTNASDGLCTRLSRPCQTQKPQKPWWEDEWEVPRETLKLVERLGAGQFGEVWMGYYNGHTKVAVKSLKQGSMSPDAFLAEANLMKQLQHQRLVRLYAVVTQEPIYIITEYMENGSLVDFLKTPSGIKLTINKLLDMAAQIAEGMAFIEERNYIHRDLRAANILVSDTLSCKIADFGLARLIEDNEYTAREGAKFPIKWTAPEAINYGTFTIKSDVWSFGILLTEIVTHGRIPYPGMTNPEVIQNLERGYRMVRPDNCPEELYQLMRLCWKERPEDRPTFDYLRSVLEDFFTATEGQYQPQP

Structures are written as SMILES.

Chain of Serine/threonine-protein kinase PLK1 (P53350 whole entry): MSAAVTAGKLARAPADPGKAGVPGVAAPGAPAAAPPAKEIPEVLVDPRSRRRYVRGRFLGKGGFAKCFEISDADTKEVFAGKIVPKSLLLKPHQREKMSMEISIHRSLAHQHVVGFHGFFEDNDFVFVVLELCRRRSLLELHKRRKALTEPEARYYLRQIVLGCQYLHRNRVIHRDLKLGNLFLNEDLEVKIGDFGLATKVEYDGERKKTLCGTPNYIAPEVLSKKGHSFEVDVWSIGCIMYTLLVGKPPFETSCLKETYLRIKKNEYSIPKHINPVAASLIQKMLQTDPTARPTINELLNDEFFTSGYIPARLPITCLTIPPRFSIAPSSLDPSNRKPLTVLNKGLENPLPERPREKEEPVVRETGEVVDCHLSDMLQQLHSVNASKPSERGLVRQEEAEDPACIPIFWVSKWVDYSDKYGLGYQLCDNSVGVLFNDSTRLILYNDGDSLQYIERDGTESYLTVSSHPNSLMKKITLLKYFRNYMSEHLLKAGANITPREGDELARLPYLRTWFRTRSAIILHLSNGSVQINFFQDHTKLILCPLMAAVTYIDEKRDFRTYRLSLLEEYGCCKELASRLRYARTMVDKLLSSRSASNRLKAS
Chain of 5-hydroxytryptamine receptor 1A (P08908 whole entry): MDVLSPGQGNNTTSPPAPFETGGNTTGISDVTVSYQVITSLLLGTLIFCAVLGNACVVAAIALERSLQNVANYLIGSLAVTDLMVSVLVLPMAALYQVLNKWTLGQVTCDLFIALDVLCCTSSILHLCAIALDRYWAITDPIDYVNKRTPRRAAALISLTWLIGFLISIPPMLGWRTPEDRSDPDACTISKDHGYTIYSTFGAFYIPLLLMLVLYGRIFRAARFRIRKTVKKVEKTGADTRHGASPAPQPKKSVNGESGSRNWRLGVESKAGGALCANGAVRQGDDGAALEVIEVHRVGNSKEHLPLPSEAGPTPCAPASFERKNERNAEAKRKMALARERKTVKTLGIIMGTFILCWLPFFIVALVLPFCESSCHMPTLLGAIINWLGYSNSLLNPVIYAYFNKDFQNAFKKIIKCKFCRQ

What is called IC50 is the midpoint of a concentration-inhibition curve. Take `Cc1cc([C@@H](C)Nc2ccccc2C(=O)O)c2nc(N3CCOCC3)cc(=O)n2c1` [AZD-6482]: the 50% inhibitory concentration (IC50) in test [1] is above 999 µM.
`N#Cc1cccc(-c2c[nH]c3ncnc(N4CCOCC4)c23)c1`: the % of inhibition in test [2] was determined as 14%.
For the compound `CCC(=O)N1CC[C@H](Nc2ncnc3c2CN(c2cnc(OC)c(C(F)(F)F)c2)CC3)C1` [LENIOLISIB], the IC50 in test [3] was above 30 µM.
As for `CC[C@@H]1[C@H](F)C(=O)N[C@@H]1COc1nccc2cc(C(N)=O)c(OC)cc12` [ZIMLOVISERTIB], the % of inhibition was -5.5% in test [4] (at 0.01 µM); -23.7% in test [4] (at 0.04 µM); -87.3% in test [4] (at 0.2 µM); -76.3% in test [4] (at 1 µM); -29.4% in test [4] (at 5 µM); 7.9% in test [5] (at 0.01 µM). In addition, the % of inhibition is 2% in test [5] (at 0.04 µM), -17.6% in test [5] (at 0.2 µM), -0.9% in test [5] (at 1 µM) and -0.9% in test [5] (at 5 µM).
Turning to `COc1cc(Nc2nc(C)cc(-c3cnn4nc(OC)ccc34)n2)cc(C(F)(F)F)c1`, the % of control in test [6] is 100%.
As to `COc1cc(C(=O)N2CC[C@@H](O)[C@@H](N)C2)cc2nc(-c3cc4ccccc4n3CC3CC3)n(C)c12`, the pXC50 in test [7] was below 4.5 M.
